For this test, the system named is L1210 leukemia ip in BDF1 mice, survival T/C. Briefly: NCI In Vivo Anticancer Drug Screen. Data for tumor model L1210 Leukemia (intraperitoneal) in B6D2F1 (BDF1) mice. Particulars: endpoint: mean survival time, higher = longer survival. The gist of the method:
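Read-out is survival time, reported as the treated-group measurement over the vehicle-control measurement.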

Where [1] appears, read: dose: 50.0 mg/kg/injection, schedule: Q01DX009 (ip), vehicle: Klucel (hydroxypropylcellulose) (HPC).
The mark [2] stands for this setting: dose: 100.0 mg/kg/injection, schedule: Q01DX009 (ip), vehicle: Klucel (hydroxypropylcellulose) (HPC).
The mark [3] stands for this setting: dose: 200.0 mg/kg/injection, schedule: Q01DX009 (ip), vehicle: Klucel (hydroxypropylcellulose) (HPC).
Setting [4] is: dose: 100.0 mg/kg/injection, schedule: Q01DX009 (ip), vehicle: saline with Tween-80.
[5] abbreviates: dose: 100.0 mg/kg/injection, schedule: Q01DX001 (ip), vehicle: saline.
The mark [6] stands for this setting: dose: 200.0 mg/kg/injection, schedule: Q01DX001 (ip), vehicle: saline.
[7] abbreviates: dose: 100.0 mg/kg/injection, schedule: Q01DX001 (ip), vehicle: saline with Tween-80.
The mark [8] stands for this setting: dose: 100.0 mg/kg/injection, schedule: Q01DX001 (ip), vehicle: carboxymethylcellulose (CMC).
[9] abbreviates: dose: 200.0 mg/kg/injection, schedule: Q01DX001 (ip), vehicle: carboxymethylcellulose (CMC).
Setting [10] is: dose: 400.0 mg/kg/injection, schedule: Q01DX001 (ip), vehicle: carboxymethylcellulose (CMC).
Setting [11] is: dose: 200.0 mg/kg/injection, schedule: Q01DX009 (ip), vehicle: saline with Tween-80.
Where [12] appears, read: dose: 100.0 mg/kg/injection, schedule: Q01DX001 (ip), vehicle: Klucel (hydroxypropylcellulose) (HPC).
The mark [13] stands for this setting: dose: 200.0 mg/kg/injection, schedule: Q01DX001 (ip), vehicle: Klucel (hydroxypropylcellulose) (HPC).

Each structure is given as a SMILES string. Toxic doses and inconclusive results are not listed.

On to `NCc1cn(C2OC(CO)C(O)C2O)c2ncnc(N)c12` (centres undefined), for which the T/C runs as follows: (dose: 1.56 mg/kg/injection, schedule: Q01DX009 (ip), vehicle: saline) 90 % of control; (dose: 3.12 mg/kg/injection, schedule: Q01DX005 (ip), vehicle: saline) 92 % of control; (dose: 3.12 mg/kg/injection, schedule: Q01DX009 (ip), vehicle: saline) 107 % of control; (dose: 6.25 mg/kg/injection, schedule: Q01DX005 (ip), vehicle: saline) 108 % of control.

For the compound `O=C(CCCO)N/N=C\c1ccc([N+](=O)[O-])s1`, the T/C by setting is: (dose: 100.0 mg/kg/injection, schedule: Q04DX003 (ip), vehicle: saline) 95 % of control; (dose: 200.0 mg/kg/injection, schedule: Q04DX003 (ip), vehicle: saline) 93 % of control; (dose: 400.0 mg/kg/injection, schedule: Q04DX003 (ip), vehicle: saline) 101 % of control.

With `Nc1cccc(CNC(=O)COc2cccc(Cl)c2)c1`, the T/C is 116 % of control under setting [1]; 109 % of control under setting [2]; 96 % of control (dose: 100.0 mg/kg/injection, schedule: Q04DX003 (ip), vehicle: Klucel (hydroxypropylcellulose) (HPC)); 120 % of control under setting [3]; 96 % of control (dose: 200.0 mg/kg/injection, schedule: Q04DX003 (ip), vehicle: Klucel (hydroxypropylcellulose) (HPC)); 104 % of control (dose: 400.0 mg/kg/injection, schedule: Q04DX003 (ip), vehicle: Klucel (hydroxypropylcellulose) (HPC)).

For the compound `CCOC(=O)c1ccc(C(=O)OCC)nc1`, the T/C runs as follows: (dose: 12.5 mg/kg/injection, schedule: Q01DX009 (ip), vehicle: saline) 109 % of control; (dose: 25.0 mg/kg/injection, schedule: Q01DX009 (ip), vehicle: saline) 94 % of control; (dose: 50.0 mg/kg/injection, schedule: Q01DX009 (ip), vehicle: saline) 101 % of control; under setting [4], 87 % of control; (dose: 100.0 mg/kg/injection, schedule: Q04DX003 (ip), vehicle: saline with Tween-80) 101 % of control; (dose: 200.0 mg/kg/injection, schedule: Q04DX003 (ip), vehicle: saline with Tween-80) 106 % of control. Moreover, the T/C (dose: 400.0 mg/kg/injection, schedule: Q04DX003 (ip), vehicle: saline with Tween-80) was 103 % of control.

For `Nc1cc(Cl)ccc1O`, the T/C reads like this: under setting [5], 98 % of control; under setting [6], 91 % of control.

Take `c1ccc(C2=Nc3ccccc3-c3ccccc3N2)cc1`: the T/C by setting is: under setting [7], 100 % of control; (dose: 200.0 mg/kg/injection, schedule: Q01DX001 (ip), vehicle: saline with Tween-80) 103 % of control; (dose: 400.0 mg/kg/injection, schedule: Q01DX001 (ip), vehicle: saline with Tween-80) 106 % of control.

As for `O/N=C1\CN2CCC1CC2`, the T/C reads like this: (dose: 18.75 mg/kg/injection, schedule: Q04DX003 (ip), vehicle: saline) 104 % of control; (dose: 25.0 mg/kg/injection, schedule: Q01DX001 (ip), vehicle: saline with Tween-80) 97 % of control; (dose: 37.5 mg/kg/injection, schedule: Q04DX003 (ip), vehicle: saline) 98 % of control; (dose: 50.0 mg/kg/injection, schedule: Q01DX001 (ip), vehicle: saline with Tween-80) 97 % of control; (dose: 75.0 mg/kg/injection, schedule: Q04DX003 (ip), vehicle: saline) 102 % of control; under setting [7], 102 % of control.

`CC1=CC(=O)OC1=O` (tested in a mixture with another compound): the T/C reads like this: (dose: 37.5 mg/kg/injection, schedule: Q01DX009 (ip), vehicle: carboxymethylcellulose (CMC)) 117 % of control; (dose: 75.0 mg/kg/injection, schedule: Q01DX001 (ip), vehicle: carboxymethylcellulose (CMC)) 109 % of control; (dose: 150.0 mg/kg/injection, schedule: Q01DX001 (ip), vehicle: carboxymethylcellulose (CMC)) 118 % of control.

Regarding `CCCCCC(C)n1c(C)cc(=O)n1C(C)CCCCC` (centres undefined), the T/C (dose: 75.0 mg/kg/injection, schedule: Q01DX001 (ip), vehicle: other) is 92 % of control and the T/C (dose: 150.0 mg/kg/injection, schedule: Q01DX001 (ip), vehicle: other) is 97 % of control.

Regarding `Cc1cccc(CN(CC(=O)O)S(C)(=O)=O)c1`, the T/C is 102 % of control (dose: 100.0 mg/kg/injection, schedule: Q01DX009 (ip), vehicle: other); 100 % of control (dose: 100.0 mg/kg/injection, schedule: Q04DX003 (ip), vehicle: other); 100 % of control (dose: 200.0 mg/kg/injection, schedule: Q01DX009 (ip), vehicle: other); 98 % of control (dose: 200.0 mg/kg/injection, schedule: Q04DX003 (ip), vehicle: other); 100 % of control (dose: 400.0 mg/kg/injection, schedule: Q01DX009 (ip), vehicle: other); 93 % of control (dose: 400.0 mg/kg/injection, schedule: Q04DX003 (ip), vehicle: other).

As for `C[N+](C)(C)c1ccccn1`, the T/C (dose: 75.0 mg/kg/injection, schedule: Q01DX001 (ip), vehicle: saline) is 102 % of control.

`COc1ccc2c(c1)C1(C)CCCC(C)(C(N)=O)C1CC2` (centres undefined): the T/C is, setting by setting: under setting [8], 101 % of control; under setting [9], 93 % of control; under setting [10], 98 % of control.

As to `c1nc(Sc2ncnc3nc[nH]c23)c2[nH]cnc2n1`, the T/C reads like this: (dose: 50.0 mg/kg/injection, schedule: Q01DX001 (ip), vehicle: saline) 108 % of control; (dose: 75.0 mg/kg/injection, schedule: Q01DX015 (ip), vehicle: saline) 114 % of control; under setting [5], 104 % of control; (dose: 150.0 mg/kg/injection, schedule: Q01DX015 (ip), vehicle: other) 213 % of control; under setting [6], 119 % of control; (dose: 238.0 mg/kg/injection, schedule: Q01DX001 (ip), vehicle: saline) 115 % of control. In addition, the T/C (dose: 300.0 mg/kg/injection, schedule: Q01DX015 (ip), vehicle: other) is 176 % of control; the T/C (dose: 356.0 mg/kg/injection, schedule: Q01DX001 (ip), vehicle: saline) is 117 % of control; the T/C (dose: 600.0 mg/kg/injection, schedule: Q01DX015 (ip), vehicle: other) was 108 % of control; the T/C (dose: 600.0 mg/kg/injection, schedule: Q01DX015 (ip), vehicle: saline) was 117 % of control.

`CN(C)C1c2ccccc2-c2ccc(N)cc21` (centres undefined): the T/C under setting [8] was 94 % of control.

`CC1CN(c2ccccc2)CN1c1ccccc1` (centres undefined): the T/C is 94 % of control (dose: 100.0 mg/kg/injection, schedule: Q04DX002 (sc), vehicle: olive oil, sesame oil, peanut oil); 91 % of control (dose: 200.0 mg/kg/injection, schedule: Q04DX002 (sc), vehicle: olive oil, sesame oil, peanut oil); 102 % of control (dose: 400.0 mg/kg/injection, schedule: Q04DX002 (sc), vehicle: olive oil, sesame oil, peanut oil).

With `Cc1ccc(N=Nc2ccc(C)cc2NC(=O)Nc2cccc(F)c2)cc1`, the T/C under setting [4] was 90 % of control; the T/C under setting [11] was 90 % of control; the T/C (dose: 400.0 mg/kg/injection, schedule: Q01DX009 (ip), vehicle: saline with Tween-80) was 98 % of control.

As to `Cc1cc(C)n2nc(N)nc2n1`, the T/C under setting [8] is 101 % of control, the T/C under setting [9] was 95 % of control and the T/C under setting [10] was 95 % of control.

Regarding `CCCCCNc1ccnc(=O)[nH]1`, the T/C by setting is: (dose: 50.0 mg/kg/injection, schedule: Q01DX001 (ip), vehicle: Klucel (hydroxypropylcellulose) (HPC)) 99 % of control; under setting [12], 94 % of control; under setting [13], 96 % of control.

As for `COCCOC(=O)C(=O)OCCOC`, the T/C reads like this: under setting [1], 95 % of control; under setting [12], 97 % of control; under setting [2], 97 % of control; under setting [13], 90 % of control; under setting [3], 93 % of control.

For `O=S(=O)(O)c1cccc2nsnc12`, the T/C is 107 % of control under setting [2] and 109 % of control under setting [3].

For the compound `Cc1ccc(C(CC(=O)NN)NN)c(O)c1` (centres undefined), the T/C (dose: 50.0 mg/kg/injection, schedule: Q01DX009 (ip), vehicle: saline with Tween-80) is 104 % of control; the T/C under setting [4] is 101 % of control; the T/C under setting [11] is 108 % of control.

These data come from PubChem BioAssay AID248 (DTP/NCI, 2004).
